{
  "source": "patent US7136698B2",
  "about": "(priority 1996, dated 2006)",
  "experiment": "Current density and goserelin flux: constant current electrotransport delivery",
  "format": "in vivo, human",
  "method": "This study was undertaken to evaluate the relationship between current density and drug flux in the transdermal electrotransport delivery of goserelin. The study involved the application of electrotransport devices, applying constant current, to 12 normal male volunteers for a duration of 8 hours.\nThe two electrotransport treatment regimens in this study differed only in applied current density levels. The electrotransport devices delivered goserelin through the skin from polyvinyl alcohol (PVOH)-based donor hydrogels having a skin-contact surface area of 4 cm^2. The gels contained an aqueous goserelin solution. The current density levels used in this study were […]. After an 8 hour treatment period, the electrotransport devices were removed. The skin site was then washed to remove any residual goserelin. All 12 volunteers received each treatment seven days apart.\nFor each treatment, seven blood samples were taken over a 24 hour period commencing with the application of current from the electrotransport devices. Serum goserelin concentrations from each patient were used to calculate mean drug flux and the mean total amount of drug delivered.",
  "data": [
    {"smiles": "CC(C)C[C@H](NC(=O)[C@@H](COC(C)(C)C)NC(=O)[C@H](Cc1ccc(O)cc1)NC(=O)[C@H](CO)NC(=O)[C@H](Cc1c[nH]c2ccccc12)NC(=O)[C@H](Cc1cnc[nH]1)NC(=O)[C@@H]1CCC(=O)N1)C(=O)N[C@@H](CCCNC(=N)N)C(=O)N1CCC[C@H]1C(=O)NNC(N)=O", "note": "[goserelin]", "values": [
      {"measurement": "average transdermal goserelin flux", "setting": "applied current density 50 μA/cm^2, 8 hours", "value": 5.8, "unit": "µg/h"},
      {"measurement": "average transdermal goserelin flux", "setting": "applied current density 100 μA/cm^2, 8 hours", "value": 21.6, "unit": "µg/h"},
      {"measurement": "increase in drug flux", "setting": "current density rises from 50 to 100 μA/cm^2", "value": "almost four-fold increase"}
    ]}
  ]
}
